Measurements as given in patent US20060052419A1, “Use of pyridly amides as inhibitors of angiogenesis” (priority 2002, published 2006).

Assays:
[1] = Maximum tolerated dose (MTD); parameters: species or system Balb/c mice; conditions: Balb/c, mouse, in vivo
Procedure: N-[4-(1-benzoyl-piperidin-4-yl)-butyl]-3-(pyridin-3-yl)-acrylamide was given to the animals p.o. twice a day on days 10, 11, 12, 13, 14, and 15 after tumor implantation. The doses were 3, 5, 6, or 10 mg/kg per each administration. TNP-470 was injected into the animals s.c. on days 2, 4, 6, 8, 10, 12, 14, 16, 18 and 20 after tumor implantation at the maximum tolerated dose, 30 mg/kg. Control animals received the vehicle (0.9% saline solution) p.o. twice a day on days 10, 11, 12, 13, 14, and 15 after tumor implantation. At least seven animals per test group were used.
TNP-470 was administered at the MTD (maximum tolerated dose), 30 mg/kg, and over a longer time range than BPPA which was given below the MTD (approximately 12 mg/kg).

[2] = system: VEGF production in HepG2 cells; assay: VEGF production in HepG2 cells (ELISA of culture supernatant); type: cell-based, human
Procedure: Trypsin/EDTA: 0.05% (w/v) trypsin (Difco, Detroit, USA)+0.016% (w/v) EDTA (Sigma, Deisenhofen, Germany). N-[4-(1-benzoyl-piperidin-4-yl)-butyl]-3-(pyridin-3-yl)-acrylamide (in the following also referred to as BPPA) was synthesized as described in the literature, by the department of chemistry at Klinge Pharma GmbH, Munich, Germany.
Stock solutions of test compound: a 10 mM solution was prepared in dimethyl sulfoxide (DMSO) and stored at −18° C.; further dilution steps were done in ethanol.
The human-derived tumor cell lines HepG2 (liver carcinoma) was obtained from the American Type Culture Collection (ATCC), Rockville, Md., USA.
Richter's Improved Minimal Essential Medium, Zinc Option (IMEM-ZO), was purchased from Gibco BRL, Life Technologies (Eggenstein, Germany). The standard medium MEM and the human serum albumin were purchased from Sigma (Deisenhofen, Germany). The medium powder was dissolved in deionized water, the pH titrated to 7.2 with HCl/NaOH and sterilized by filtration. The medium was supplemented with 10% fetal calf serum (FCS), PAN Systems GmbH, Aidenbach, Germany.
Monolayer cells were detached from 75 cm^2 flasks by removing the growth medium and adding 3 ml trypsin/EDTA solution to each flask. After about 5-10 minutes incubation at 37° C., when the cells were detached from the surface of the dishes, trypsinization was stopped by adding 3 ml Richter's IMEM-ZO medium containing 10% FCS. The cells were suspended by repeated pipetting. For predilution, an aliquot of 20 μl was added to 10 ml Casyton isotonic solution (No. 043-90037P, Scharfe System, Reutlingen, Germany) using a Sysmex Auto Dilutor Type AD-260 (Toa, Medical Electronics Co. Ltd., Kobe, Japan). The cell number was determined by electronic cell volume measurements by counting with a CASY 1 Cell Counter & Analyzer System, Model TTC (Schärfe System, Reutlingen, Germany) equipped with a 60 μm capillary. Following dilution in growth medium (IMEM-ZO), the cells were finally seeded at a density of 25,000 cells per 1000 μl in 24-well culture dishes (Greiner, Frickenhausen, Germany) for the VEGF assay and incubated at 37° C. in a humidified atmosphere of 5% CO2 in air.
After six days of incubation, when the cells were nearly confluent, the medium was removed and cultures were replenished with 1 ml fresh serum free MEM medium containing 0.1% human serum albumin plus the test substance or the solvent ethanol as control. The cells were then incubated at 37° C. in a humidified atmosphere of 5% CO2 in air. On the next day the medium was removed again and the cultures were incubated with further 0.5 ml serum free MEM containing 0.1% human serum albumin plus the test substance or the solvent ethanol as control. After 48 and 72 hours the medium was collected, centrifuged at 1000 rpm for 5 minutes to remove cell debris. Supernatants were stored at −20° C. until quantification of the VEGF concentration. Furthermore the protein content of the remaining cell layer in each well was determined as reference parameter.
VEGF determination was measured in the supernatants of the cell cultures using a commercially available ELISA kit (R&D, Systems, Wiesbaden/Germany). The method for the determination was performed as described in the test kit brochure.
The results are summarized in the following Table 1, where the VEGF concentration in the supernatant after 48 h and 72 h of incubation was determined. […]

[3] = system: murine renal cell carcinoma (RENCA); assay: Blood vessel density in primary tumors of murine renal cell carcinoma (RENCA) model; type: in vivo, Balb/c mice; conditions: sacrifice day 21
Procedure: Murine RENCA cells were originally obtained from a tumor that arose spontaneously in the kidney of BALB/c mice. Histologically, RENCA consists of granular cell type adenocarcinoma, which is pleomorphic with large nuclei. Monolayers of murine RENCA cells were grown in RPMI 1640 with phenol red supplemented with 10% FCS, 2 mM L-glutamine, 100 units penicillin/ml, and 100 μg of streptomycin/ml. RENCA cells were cultured in a humidified atmosphere of 95% air and-5% carbon dioxide at 37° C. Media were routinely changed every 3 days.
For the in vivo administration N-[4-(1-benzoyl-piperidin-4-yl)-butyl]-3-(pyridin-3-yl)-acrylamide was solubilized in a 0.9% saline solution and TNP-470 in a saline solution containing 3% absolute ethanol.
All experiments were carried out using 6-8 weeks old male Balb/c mice (approximate weight, 20 g). Mice are maintained in separated conventional housing at constant temperature and humidity […]
All animals were sacrificed on day 21 after tumor implantation and the tumor tissue of all animals was surgically removed and quickly frozen in liquid nitrogen. […] For the visualization of the blood vessels, immunohistochemical staining for CD 31 (PECAM-1 and MEC 13.3; PharMingen, San Diego, Calif.) was performed, and vessels were counted microscopically using a defined magnification.

O=C(C=Cc1cccnc1)NCCCCC1CCN(C(=O)c2ccccc2)CC1 [BPPA, N-[4-(1-benzoyl-piperidin-4-yl)-butyl]-3-(pyridin-3-yl)-acrylamide]
MTD ([1]; po): ~12 mg/kg
VEGF concentration in the supernatant ([2]; 2 nM compound in medium, 48 hours incubation): 208.30 pg/200 μl
VEGF concentration in the supernatant ([2]; 2 nM compound in medium, 72 hours incubation): 0.00 pg/200 μl
VEGF concentration in the supernatant ([2]; 20 nM compound in medium, 48 hours incubation): 0.00 pg/200 μl
VEGF concentration in the supernatant ([2]; 20 nM compound in medium, 72 hours incubation): 0.00 pg/200 μl
inhibition of the production of VEGF ([2]; after 48 hours of incubation, FIG. 1): inhibited the production of VEGF in HepG2 cells very effectively
vessel density in the RENCA tumor ([3]; 3, 5, 6 and 10 mg/kg p.o. twice a day on days 10-15 after tumor implantation, CD 31 staining): significantly reduced the vessel density

CO[C@@H]1[C@H](OC(=O)NC(=O)CCl)CC[C@]2(CO2)[C@H]1[C@@]1(C)O[C@@H]1CC=C(C)C [TNP-470, reference compound]
MTD ([1]; sc): 30 mg/kg
vessel density in the RENCA tumor, effectiveness compared to BPPA ([3]; 30 mg/kg (MTD) s.c. on days 2, 4, 6, 8, 10, 12, 14, 16, 18 and 20 after tumor implantation): not as effective as BPPA
